Assay results published in patent US11078232B2, “Preparation and use of molecular site targeted and activated kinase inhibitor” (Yafei Shanghai Biology Medicine Science & Technology Co. …, priority 2017, dated 2021).

Tests used:
[1] = Stability of carbohydrate-linked enzyme substrate peptide linkers; type: physicochemical; conditions: linker: carbohydrate linked to the enzyme substrate peptide
Method: (§1) The specific aspartic acid endopeptidase (Legumain) enzyme substrate peptide was ligated to different types of carbohydrates, and the stability and enzymatic cleavage efficiency of the resulting linker were tested, and a strong activation was predicted.

[2] = target: T1, aspartic acid endopeptidase (Legumain) (Homo sapiens, UniProt Q99538); assay: Enzymatic cleavage (digestion) efficiency of linkers; type: biochemical; conditions: linker cleaved by Legumain
T1 sequence (Q99538 18-323): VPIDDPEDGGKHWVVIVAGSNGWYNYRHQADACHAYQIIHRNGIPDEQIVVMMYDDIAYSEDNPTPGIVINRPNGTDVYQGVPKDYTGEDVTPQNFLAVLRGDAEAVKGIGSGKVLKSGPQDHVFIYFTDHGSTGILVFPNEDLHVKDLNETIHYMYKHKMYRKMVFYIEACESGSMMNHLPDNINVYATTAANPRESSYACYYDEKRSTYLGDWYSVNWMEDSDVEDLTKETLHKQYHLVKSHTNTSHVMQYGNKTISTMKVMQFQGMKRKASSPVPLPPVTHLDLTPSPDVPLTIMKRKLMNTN
Method: as §1

[3] = Drug content in tumor tissue homogenate (HPLC); type: in vivo; conditions: 10 micromoles per kilogram intravenous, tumor-bearing mice, FIG. 4
Method: Intravenous injection of 10 micromoles per kilogram of the drug into tumor-bearing mice, surgically obtained tumor tissue homogenate, and the drug content was determined by the HPLC method.

BALB/C mouse = assay: MTD (maximum tolerated dose) acute toxicity in mice; type: in vivo; conditions: intravenous; for Number of deaths: 10 mice per group; for Death dose: observed 17 days
From the text: (§2) Test purpose: to investigate the acute toxicity of highly activated compounds by targeted site molecules of the invention by measuring the MTD (maximum tolerated dose) experiment in mice.
(§3) The injections of each drug and the control drug were uniformly dissolved using water for injection, and diluted to the corresponding dose with physiological saline during the test.
(§4) Methods and results: […] BALB/C mice, weighing 19-21 g, were randomly divided into 10 groups, with 10 mice in each group. […] A control test of the saline group and the adriamycin group injection (commercially available, Beijing Yue kang) was carried out, and the injection volume of each mouse was 0.2 ml. […] On the D3, D5, and D14, blood samples were taken for whole blood count.

[4] = as above; type: in vivo, mouse; conditions: female, mouse, in vivo; BALB/C mice, intravenous, observed 17 days
From the text: as §2, §3, §4

[5] = test system: Tumor-associated macrophages (M2 type); assay: MTT toxicity on tumor-associated macrophages (M2 type); type: cell-based; conditions: 48 hours, pH 6.5, MTT, FIG. 7
Method: Tumor-associated macrophages (M2 type) induced by mononuclear bone marrow cells were collected by M-CSF (10 ng/ml), the cell suspension concentration was adjusted, 140 ul per well was added, and the cells were adjusted to a density of ˜3000 […]. 5% CO2, incubate at 37° C. overnight, until the cell monolayer is covered with the bottom of the well (96-well flat bottom plate), and then add a continuous concentration gradient to give different concentrations of the drug, the drug is set to 9 concentration gradients, 10 μl per well, set Three replicate wells; 5% CO2, incubated at 37° C., pH 6.5 for 48 hours, observed under an inverted microscope; 20 μl of MTT solution (5 mg/ml, i.e., 0.5% MTT) was added to each well and culture was continued for 4 h. The culture was terminated, and the culture solution in the well was carefully aspirated; 100 ul of dimethyl sulfoxide was added to each well, and shaken on a shaker at a low speed for 10 min to dissolve the crystals sufficiently. The absorbance of each well was measured at an enzyme-linked immunosorbent detector at OD490 nm. At the same time, zero adjustment holes (medium, MTT, dimethyl sulfoxide), control group (cell, same concentration of drug dissolution medium, medium, MTT, dimethyl sulfoxide) were set. The toxicity of the compound to tumor-associated macrophages (M2 type) was analyzed after the test. The inhibition of tumor-associated macrophages (M2 type) by different drugs was compared. […] Compound a, sorafenib, is also toxic because it is not a targeted activating drug.

[6] = Solid stability, 60° C. for 10 days in the dark (HPLC); type: physicochemical; conditions: solid, 60° C., 10 days, dark; for Stability(%): content versus time 0
Method: The test was carried out by leaving it at 60° C. for 10 days in the dark. The ratio of the change in the content of the compound to the compound at time 0 was measured by HPLC, and the stability value (%) was calculated.

D121 lung cancer cells = assay: D121 lung cancer immunotherapy model; conditions: for Tumor inhibition rate/% (week 7) / CD8: CD45 (%): single agent; for Tumor inhibition rate/% (week 7): i.v. ⅙ MTD once a week for 4 weeks; for CD8: CD45 (%): tumor CD8+ T cells among CD45-positive cells
Method: (1) D121 lung cancer cells purchased from ATCC were cultured in DMEM medium containing 10% fetal bovine serum at 37° C. and 5% CO2, and the cells were digested with EDTA trypsin according to routine use, and passed two to three times a week for placement.
(2) Animals: C57 BALB/C mice, 6-8 weeks old, female, weighing about 18-22 g, purchased from Shanghai SLAC Laboratory Animal Co., Ltd.
3) Immunization: Mice were intraperitoneally injected with 100 μL of 5×10^5 D121 lung cancer cells that died by repeated freeze-thaw cycles, and immunized 3 times with an interval of 2 weeks.
4) Cell seeding: Collect the tumor cells in logarithmic growth phase, adjust the D121 cell concentration to (1×10^7/ml) with DMEM basal medium, 0.1 ml of the cell suspension was inoculated to the right side of each mouse subcutaneously with a 1 ml syringe. […] Tumor volume was observed and measured, and the average tumor volume reached 100-200 mm^3 about 7 days after inoculation, that is, tumor cell-bearing mice were grouped and administered. The immunized group in Table 9 was immunized with D121 lung cancer cells, and the D121 dead tumor cell immunized group was injected with physiological saline as a control.
The immunosuppressive regulatory point protein Anti-PD-L1 antibody was injected twice a week. A total of two weeks.
6) Experimental observation: During the whole experiment, the use and observation of experimental animals were carried out in accordance with the regulations of AAALAC. The experimental animals were observed daily after inoculation of tumor cells, and their onset and death were recorded. During the routine experiment, all experimental animals were monitored and recorded for behavior, feeding, water intake, weight change, hair shine and other abnormalities.
(7) Analysis of tumor CD8+ T cells (T lymphocyte subsets). Tumor tissues were ground and single cancer cells were isolated by filtration using 40 μm Nylon cell strainer, lysed twice with blood cell lysis buffer for 20 min, washed twice with 1% BSA-PBS buffer, centrifuged, and resuspended, and then the cells were counted again. 1×10^5 cells were incubated with leukocyte co-antigen CD45-PE and CD8-FITC-labeled antibody for 1 hour at room temperature in the dark, and then analyzed the proportion of T lymphocyte antigen (CD8) in leukocyte common antigen (CD45)-positive cells by flow cytometry.

aspartic endopeptidase = target: T2, aspartic endopeptidase (Homo sapiens, UniProt Q99538); assay: Activation efficiency by aspartic endopeptidase (HPLC); type: biochemical; conditions: 1 mg/ml compound, enzyme 1 μmol/L, pH 6.0, 37° C., 2 hours; ratio of released product to original compound
T2 sequence (Q99538 18-323): T1 sequence (Q99538 18-323)
Method: The sample compound and a portion of the control compound (herein, all of the control compounds can be synthesized by a method similar to that described in Examples 1-3) were uniformly diluted 10-fold to 1 mg/ml with the enzyme-digesting solution. In this experiment, 1 mg/ml of the sample compound was added to the aspartic endopeptidase (1 μmol/L, pH 6.0) at 37° C. for 2 hours. After the reaction, the enzyme digest was able to release the enzyme-digested product. The decrease in the compound and the increase in the product were examined by HPLC to compare the enzyme activation efficiency (the ratio of the product released by the enzyme cleavage to the original compound).

Heg2 cells = assay: MTT cytotoxicity on Heg2 cells; type: cell-based; conditions: FIG. 3; for toxicity to Heg2 cells: 48 hours, pH 6.5, MTT; for inhibition of cancer cells versus positive controls: cell viability experiments
Method: Collect logarithmic Heg2 cells, adjust the cell suspension concentration, add 140 ul per well, and plate to adjust the density of the cells to be tested ˜5000/well; 5% CO2, incubate at 37° C. overnight, until the cell monolayer is covered with the bottom of the well (96) Condensate bottom plate), adding continuous concentration gradient to give different concentrations of compound S1, compound a and sorafenib, the drug set 9 concentration gradients, 10 ul per well, set 3 duplicate wells; 5% CO2, 37° C. PH6 0.5 incubation for 48 hours, observed under an inverted microscope; 20 μl of MTT solution (5 mg/ml, i.e. 0.5% MTT) was added to each well and incubation was continued for 4 h. The culture was terminated, and the culture solution in the well was carefully aspirated; 100 ul of dimethyl sulfoxide was added to each well, and shaken on a shaker at a low speed for 10 min to dissolve the crystals sufficiently. The absorbance of each well was measured at an enzyme-linked immunosorbent detector at OD490 nm. At the same time, zero adjustment holes (medium, MTT, dimethyl sulfoxide), control group (cell, same concentration of drug dissolution medium, medium, MTT, dimethyl sulfoxide) were set.

CT26 tumor cells [7] = assay: CT26 immunotherapy model (Example 15); type: in vivo, mice; conditions: for Cure rate % / Number of cures: 10 in each group; for Tumor inhibition rate % (Day 42): IV ⅓ MTD once a week, 6 weeks; for Recurrence rate % (Week 7): cured mice re-inoculated with CT26 cells after 50 days
Method: (§5) 1) CT26 tumor cells were purchased from ATCC, and the cells were cultured using a 10% fetal bovine serum DMEM medium at 37° C., 5% CO2. The cells were passaged every 3 days and the cells were used within 15 generations.
(§6) 2) Tumor production: 10^6 live CT26 tumor cells were injected subcutaneously into the back of tumor-immunized […], and treatment was started when the tumor grew to about 0.3-0.4 cm. The tumor size (mm^3) of the mice was recorded and compared with the solvent control group. The tumor inhibition rate on day 42 was calculated in the solvent control group.
(§7) 3) Treatment process: IV injection is used, and the drug is used at a dose of ⅓ MTD once a week Immunosuppressive IV injection treatment once a week for a total of 6 weeks of treatment.
(§8) 4) The cure rate of 10 in each group was counted. After 50 days, the cured mice and wild groups were inoculated […] to detect recurrence.

CT26 tumor cells [8] = assay: CT26 treatment model (Example 17); type: in vivo, mice; conditions: CT26 model as in Example 15
Method: as §5, §6, §7, §8
The CT26 immunotherapy model was constructed as in Example 15, and the pharmacodynamic and immunotherapeutic effects of the compounds S4-S6, S9-S12 and S15-S18 in the CT26 treatment model were tested.

[9] = Stability of sorafenib derivatives in buffer systems; type: physicochemical; conditions: weak acid, weak base and neutral buffer
From the text: In order to solve this dilemma, the present invention performs allosteric synthesis and screening of the ortho-carboxamide group of the pyridine ring in the sorafenib molecule, and obtains a special compound which satisfies both the structure-activity relationship and the release effect. That is, compound a and compound b).

CC(/N=C\[C@H](O)[C@@H](O)[C@H](O)[C@H](O)CO)C(=O)NC(C)C(=O)NC(CC(N)=O)C(=O)Nc1ccc(CO)cc1 (some centres unmarked)
stability [1]: 89.6% | Digestion efficiency [2]: 25.5%

CC(/N=C(\CO)C(O)C(O)C(O)CO)C(=O)NC(C)C(=O)NC(CC(N)=O)C(=O)Nc1ccc(CO)cc1 (centres unmarked)
stability [1]: 85.5% | Digestion efficiency [2]: 35.8%

CC(NC(=O)C(C)NC(=O)[C@H](O)[C@H](O)[C@@H](O[C@@H]1O[C@H](CO)[C@H](O)[C@H](O)[C@H]1O)[C@H](O)CO)C(=O)NC(CC(N)=O)C(=O)Nc1ccc(COC(=O)N(C)CCNC(=O)c2cc(Oc3ccc(NC(=O)Nc4ccc(Cl)c(C(F)(F)F)c4)cc3)ccn2)cc1 (some centres unmarked) [Compound S1, Lacto-AAN-PABC-compound a]
drug distribution in the tumor [3]: multiplied in the distribution of sorafenib in the tumor | Number of deaths (BALB/C mouse): 1 | Death dose (BALB/C mouse): 350 mg/kg | MTD at 17 days [4]: 300 mg/kg | toxicity to / activation by tumor-associated macrophages (M2 type) [5]: more susceptible to phagocytosis and activation by macrophages than other methods of linker | Stability verdict (stable / unstable) [6]: stable | Stability(%) [6]: 96.7% | Tumor inhibition rate/% (week 7) (D121 lung cancer cells): 53.4% | CD8: CD45 (%) (D121 lung cancer cells; flow cytometry): 11.0% | Activation efficiencies (%) (aspartic endopeptidase): 86.7% | toxicity to Heg2 cells (Heg2 cells): non-toxic to normal cells | Cure rate % (CT26 tumor cells [7]): 40% | Number of cures (CT26 tumor cells [7]): 4 | Tumor inhibition rate % (Day 42) (CT26 tumor cells [7]): 94.7% | Recurrence rate % (Week 7) (CT26 tumor cells [7]): 0%

CC(NC(=O)C(C)NC(=O)[C@H](O)[C@H](O)[C@@H](O[C@@H]1O[C@H](CO)[C@H](O)[C@H](O)[C@H]1O)[C@H](O)CO)C(=O)NC(CC(N)=O)C(=O)Nc1ccc(COC(=O)N(C)CCNC(=O)c2cc(Oc3ccc(NC(=O)Nc4ccc(Cl)c(C(F)(F)F)c4)c(F)c3)ccn2)cc1 (some centres unmarked) [Compound S2, Lacto-AAN-PABC-Compound b]
drug distribution in the tumor [3]: multiplied in the distribution of sorafenib in the tumor | Number of deaths (BALB/C mouse): 2 | Death dose (BALB/C mouse): 350 mg/kg | MTD at 17 days [4]: 300 mg/kg | Stability verdict (stable / unstable) [6]: stable | Stability(%) [6]: 99.6% | Tumor inhibition rate/% (week 7) (D121 lung cancer cells): 52.4% | CD8: CD45 (%) (D121 lung cancer cells; flow cytometry): 10.5% | Activation efficiencies (%) (aspartic endopeptidase): 88.4% | Cure rate % (CT26 tumor cells [7]): 50% | Number of cures (CT26 tumor cells [7]): 5 | Tumor inhibition rate % (Day 42) (CT26 tumor cells [7]): 92.4% | Recurrence rate % (Week 7) (CT26 tumor cells [7]): 0%

CNC(=O)c1cc(Oc2ccc(NC(=O)Nc3ccc(Cl)c(C(F)(F)F)c3)cc2)ccn1 [Sorafenib, reference compound]
Number of deaths (BALB/C mouse): 0 | Death dose (BALB/C mouse): 12 mg/kg | MTD at 17 days [4]: 11 mg/kg | toxicity to / activation by tumor-associated macrophages (M2 type) [5]: also toxic | effect on T cells (D121 lung cancer cells; flow cytometry, discussion of Table 6): inhibited T cells | Tumor inhibition rate/% (week 7) (D121 lung cancer cells): 24.5% | CD8: CD45 (%) (D121 lung cancer cells; flow cytometry): 6.4% | CD8: CD45 (%) (CT26 tumor cells [8]): 7.2% | Number of animals cured (CT26 tumor cells [8]): 0 | Tumor inhibition rate/% (at week 7) (CT26 tumor cells [8]): 15.7%

CNCCNC(=O)c1cc(Oc2ccc(NC(=O)Nc3ccc(Cl)c(C(F)(F)F)c3)cc2)ccn1 [compound a]
toxicity to / activation by tumor-associated macrophages (M2 type) [5]: also toxic | toxicity to Heg2 cells (Heg2 cells): more toxic than sorafenib | inhibition of cancer cells versus positive controls (Heg2 cells): inhibited cancer cells better than the positive control drugs sorafenib and regorafenib | stability in buffer systems [9]: stable in weak acid, weak base and neutral buffer system, did not degrade

CNCCNC(=O)c1cc(Oc2ccc(NC(=O)Nc3ccc(Cl)c(C(F)(F)F)c3)c(F)c2)ccn1 [compound b]
inhibition of cancer cells versus positive controls (Heg2 cells): inhibited cancer cells better than the positive control drugs sorafenib and regorafenib | stability in buffer systems [9]: stable in weak acid, weak base and neutral buffer system, did not degrade

PEG-Ala-Ala-ASN-PABC
stability [1]: 97.6% | Digestion efficiency [2]: 68.6%
